# Test results: paper PMC10165273, “Itch receptor MRGPRX4 interacts with the receptor activity–modifying proteins” (The Journal of Biological Chemistry, 2023)
# Where “and” joins values, the source holds several entries; their conditions need not be identical. Equal entries are not always repeated. Where two headings read alike, the source gives them in different places.
# Molecular target: T1, MRGPRX4 (Homo sapiens, UniProt Q96LA9)
# T1 construct: expressed in transfected cells; host or cells: HEK293T
# Experiment: IP1 accumulation HTRF assay, MRGPRX4
# Type: cell-based
# Parameters: key to IP1 Basal / IP1 accumulation with YM (Figure 1c) / response to agonist, MRGPRX4 / IP1 accumulation: % IP1: unstimulated mock-transfected = 0%, fully stimulated MRGPRX4 = 100%
# Settings: for activation at 100 µM / activation at 20 µM / activation at 4 µM / activation at 0.8 µM / activation at […] / activation at 0.032 µM: 2 h, read-out: IP1 accumulation (normalized); for activation at 100 µM: log [nateglinide] (M) -4; for activation at 20 µM: log [nateglinide] (M) -4.69897; for activation at 4 µM: log [nateglinide] (M) -5.39794; for activation at 0.8 µM: log [nateglinide] (M) -6.09691; for activation at […]: log [nateglinide] (M) -6.79588; for activation at 0.032 µM: log [nateglinide] (M) -7.49485; for normalized IP1 accumulation: HA-MRGX4-1D4
# [1] = Dox 40 ng/mL, Supplementary Figure 5b
# [2] = Dox 40 ng/mL, Supplementary Figure 5c
# [3] = Dox 1100 ng/mL, Supplementary Figure 5a
# [4] = Dox 1100 ng/mL, Supplementary Figure 5b
# [5] = Dox 1100 ng/mL, Supplementary Figure 5c
# [6] = Dox 3300 ng/mL, Supplementary Figure 5a
# [7] = Dox 3300 ng/mL, Supplementary Figure 5b
# [8] = Dox 3300 ng/mL, Supplementary Figure 5c
# [9] = MRGPRX4 (2pg), Dox 3300ng/mL, Supplementary Figure 5b
# [10] = MRGPRX4, Supplementary Figure 5d-g
# [11] = Dox 13 ng/mL, Supplementary Figure 5a
# [12] = Dox 13 ng/mL, Supplementary Figure 5c
# [13] = Dox 40 ng/mL, Supplementary Figure 5a
# T1 sequence (Q96LA9 whole entry): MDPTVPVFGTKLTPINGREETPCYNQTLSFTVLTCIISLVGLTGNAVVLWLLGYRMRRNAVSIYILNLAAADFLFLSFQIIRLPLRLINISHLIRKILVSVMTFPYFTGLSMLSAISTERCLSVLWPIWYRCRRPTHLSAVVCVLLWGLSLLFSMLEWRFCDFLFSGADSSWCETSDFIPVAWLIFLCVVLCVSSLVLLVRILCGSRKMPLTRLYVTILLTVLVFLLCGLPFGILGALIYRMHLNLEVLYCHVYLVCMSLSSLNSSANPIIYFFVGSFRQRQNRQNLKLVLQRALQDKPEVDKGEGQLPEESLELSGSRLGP
structure (smiles),measurement,setting,value
CC(C)[C@H]1CC[C@H](C(=O)N[C@H](Cc2ccccc2)C(=O)O)CC1 [Nateglinide],activation at 100 µM,[1],17.6%
same,activation at 100 µM,[2],58%
same,activation at 100 µM,[3],97.1%
same,activation at 100 µM,[4],25.8%
same,activation at 100 µM,[5],81.1%
same,activation at 100 µM,[6],100%
same,activation at 100 µM,[7],32.5%
same,activation at 100 µM,[8],100%
same,activation at 100 µM,[9],100%
same,activation at 100 µM,[10],100%
same,activation at 100 µM,"MRGPRX4 no dox, Supplementary Figure 5d-g",1.03%
same,activation at 100 µM,"No Dox, Supplementary Figure 5a",17%
same,activation at 100 µM,"No Dox, Supplementary Figure 5c",17%
same,activation at 20 µM,[11],62.9%
same,activation at 20 µM,"Dox 13 ng/mL, Supplementary Figure 5b",6.04%
same,activation at 20 µM,[12],25.4%
same,activation at 20 µM,[13],71.8%
same,activation at 20 µM,[1],8.95%
same,activation at 20 µM,[2],33.6%
same,activation at 20 µM,[3],83.3%
same,activation at 20 µM,[4],17.4%
same,activation at 20 µM,[5],57.5%
same,activation at 20 µM,[6],86.8%
same,activation at 20 µM,[7],23.5%
same,activation at 20 µM,[8],74.7%
same,activation at 20 µM,[9],86.8%
same,activation at 20 µM,[10],96.1%
same,activation at 4 µM,[11],29.5%
same,activation at 4 µM,[12],4.86%
same,activation at 4 µM,[13],32.9%
same,activation at 4 µM,[2],7.47%
same,activation at 4 µM,[3],46.5%
same,activation at 4 µM,[4],4.19%
same,activation at 4 µM,[5],20.2%
same,activation at 4 µM,[6],44%
same,activation at 4 µM,[7],8.69%
same,activation at 4 µM,[8],32.8%
same,activation at 4 µM,[9],44%
same,activation at 4 µM,[10],56.6%
same,activation at 0.8 µM,[11],10.1%
same,activation at 0.8 µM,[13],12.5%
same,activation at 0.8 µM,[3],19.7%
same,activation at 0.8 µM,[5],3.18%
same,activation at 0.8 µM,[6],19.9%
same,activation at 0.8 µM,[8],10.1%
same,activation at 0.8 µM,[9],19.9%
same,activation at 0.8 µM,[10],23.8%
same,activation at […],[11],5.08%
same,activation at […],[13],6.44%
same,activation at […],[3],11.5%
same,activation at […],[6],11.6%
same,activation at […],[8],7.74%
same,activation at […],[9],11.6%
same,activation at […],[10],11.3%
same,activation at 0.032 µM,[11],4.57%
same,activation at 0.032 µM,[13],5.36%
same,activation at 0.032 µM,[3],10.3%
same,activation at 0.032 µM,[6],10.9%
same,activation at 0.032 µM,[8],3.46%
same,activation at 0.032 µM,[9],10.9%
same,activation at 0.032 µM,[10],13.6%
same,efficacy,"Figure 4a bottom, MRGPRX4 alone (reference = 100), individual replicates",100
same,Emax,"Figure 4a bottom, MRGPRX4 alone (reference = 100), individual replicates, read-out: efficacy",100%
same,EC50,"Figure 4a top, MRGPRX4 alone (no RAMP), individual replicates, read-out: potency (converted)",7.29 µM and 10.3 µM and 7.1 µM
same,"response to agonist, MRGPRX4","Figure 4c-f, agonist 100µM, MRGPRX4 alone (reference = 100)",100
same,normalized IP1 accumulation,log [agonist] (M) -4,81.552 and 83.6202
same,normalized IP1 accumulation,log [agonist] (M) -4.69897,71.4189 and 62.4618
same,normalized IP1 accumulation,log [agonist] (M) -5.39794,34.1012 and 34.3253
same,normalized IP1 accumulation,log [agonist] (M) -6.09691,18.0339 and 19.9037
same,normalized IP1 accumulation,log [agonist] (M) -6.79588,15.3353 and 14.0745
same,normalized IP1 accumulation,log [agonist] (M) -7.49485,14.2615 and 16.0131
same,Emax,"HEK-293T, MRGPRX4 (Fig. 1A), HEK293T, normalized to 100 μM nateglinide, read-out: IP1 Emax",103%
same,Emax,"HEK-293T, MRGPRX4 (Fig. 1A), HEK293T, normalized to 100 μM nateglinide, read-out: IP1 span",87.6%
same,Emax,"MRGPRX4 0.125 pg DNA/cell, individual experiments, read-out: efficacy (Figure 1b bottom)",77.3%
same,EC50,"MRGPRX4 0.125 pg DNA/cell, individual experiments, read-out: potency (Figure 1b top) (converted)",15.9 µM and 12.3 µM and 12.6 µM
same,Emax,"MRGPRX4 0.25 pg DNA/cell, individual experiments, read-out: efficacy (Figure 1b bottom)",81.4%
